Measured values taken from patent publication US20140051576A1, “ACTIVE COMPOUND COMBINATIONS COMPRISING A (THIO)CARBOXAMIDE DERIVATIVE AND AN INSECTICIDAL OR ACARICIDAL OR NEMATICIDAL ACTIVE COMPOUND” (priority 2011, published 2014).
Like-named read-outs stand apart in the source and are kept apart here.

Tests used:
[1] = test system: Myzus persicae; assay: Myzus persicae - Test (MYZUPE spray application); type: in vivo; details: for mortality at 100 g/ha / mortality at 200 g/ha / mortality at 4 g/ha: Myzus persicae
From the text: Myzus persicae—Test; (MYZUPE Spray Application)
Chinese cabbage (Brassica pekinesis) leaf—disks infected with all instars of the green peach aphid (Myzus persicae), are sprayed with a preparation of the active ingredient at the desired concentration.
100% means that all aphids have been killed; 0% means that none of the aphids have been killed.

[2] = test system: Phaedon cochleariae; assay: Phaedon cochleariae Larvae - Test (PHAECO spray application); type: in vivo
From the text: Phaedon cochleariae—Test; (PHAECO Spray Application)
Solvent: 78 parts by weight of acetone • 1.5 parts by weight of N,N-dimethylformamide Emulsifier: 0.5 parts by weight of alkylarylpolyglycolether
Once dry, the leaf discs are infested with mustard beetle larvae (Phaedon cochleariae).

[3] = test system: Spodoptera frugiperda; assay: whole plant or invertebrate
Method: Spodoptera frugiperda—Test (SPODFR Spray Application)
Solvent: 78.0 parts by weight acetone • 1.5 parts by weight N,N-dimethylformamide Emulsifier: 0.5 parts by weight alkylarylpolyglycolether
Maize (Zea mais) leaf sections are sprayed with a preparation of the active ingredient of the desired concentration. Once dry, the leaf sections are infested with larvae of the fall armyworm (Spodoptera frugiperda).
After the specified period of time, the mortality in % is determined. 100% means that all caterpillars have been killed and 0% means that none of the caterpillars have been killed.

[4] = test system: Tetranychus urticae; assay: Tetranychus urticae - Test; OP-resistant (TETRUR spray application); type: in vivo
From the text: Tetranychus urticae—Test; OP-Resistant (TETRUR Spray Application)
French beans (Phaseolus vulgaris) which are heavily infested with all stages of the two spotted spidermite (Tetranychus urticae), are sprayed with a preparation of the active ingredient at the desired concentration.

[5] = 24 h, read-out: Mortality in % after 1 day obs.
[6] = 144 h, read-out: Mortality in % after 6 days obs.
[7] = Phaedon cochleariae, 48 h, read-out: Mortality in % after 2 days obs.
[8] = Phaedon cochleariae, 144 h, read-out: Mortality in % after 6 days obs.
[9] = Spodoptera frugiperda, 48 h, read-out: Mortality in % after 2 days obs.
[10] = Spodoptera frugiperda, 144 h, read-out: Mortality in % after 6 days obs.
[11] = Tetranychus urticae, 48 h, read-out: Mortality in % after 2 days obs.
[12] = Tetranychus urticae, 144 h, read-out: Mortality in % after 6 days obs.

Cc1ccc(C(C)C)c(CN(C(=O)c2c(C(F)F)nn(C)c2F)C2CC2)c1 [A-12, N-cyclopropyl-3-(difluoromethyl)-5-fluoro-N-(2-isopropyl-5-methylbenzyl)-1-methyl-1H-pyrazole-4-carboxamide]
mortality at 100 g/ha [1, 5]: 0%
mortality at 200 g/ha [1, 5]: 0%
mortality at 100 g/ha [1, 6]: 0%
mortality at 200 g/ha [1, 6]: 0%
mortality at 100 g/ha [2, 7]: 0%
mortality at 100 g/ha [2, 8]: 0%
mortality at 200 g/ha [2, 8]: 0%
mortality at 100 g/ha [3, 9]: 0%
mortality at 200 g/ha [3, 9]: 0%
mortality at 100 g/ha [3, 10]: 0%
mortality at 100 g/ha [4, 11]: 0%
mortality at 150 g/ha [4, 11]: 0%
mortality at 100 g/ha [4, 12]: 0%

Cc1c(F)c(F)c(COC(=O)[C@@H]2[C@H](/C=C(\Cl)C(F)(F)F)C2(C)C)c(F)c1F (racemic) [B-3A.43, Tefluthrin]
mortality at 4 g/ha [1, 6]: 0%
mortality at 20 g/ha [2, 8]: 0%
mortality at 0.8 g/ha [3, 10]: 0%
mortality at 4 g/ha [3, 10]: 0%
mortality at 20 g/ha [4, 11]: 0%

Cn1nc(C(F)F)c(C(=O)N(Cc2c(Cl)cccc2C(F)(F)F)C2CC2)c1F [A-17, N-[2-chloro-6-(trifluoromethyl)benzyl]-N-cyclopropyl-3-(difluoromethyl)-5-fluoro-1-methyl-1H-pyrazole-4-carboxamide]
mortality at 100 g/ha [1, 5]: 0%
mortality at 100 g/ha [1, 6]: 0%
mortality at 100 g/ha [2, 7]: 0%
mortality at 100 g/ha [2, 8]: 0%
mortality at 100 g/ha [3, 9]: 0%
mortality at 100 g/ha [3, 10]: 0%
mortality at 100 g/ha [4, 11]: 0%
mortality at 100 g/ha [4, 12]: 0%

CN/C(=N\[N+](=O)[O-])NCc1cnc(Cl)s1 [B-4A.2, Clothianidin]
mortality at 4 g/ha [1, 5]: 0%
mortality at 20 g/ha [2, 7]: 83%
mortality at 4 g/ha [2, 8]: 0%
mortality at 20 g/ha [3, 10]: 0%
mortality at 20 g/ha [4, 11]: 0%
mortality at 4 g/ha [4, 12]: 0%
mortality at 20 g/ha [4, 12]: 0%

CC1(C)C(C=C(Cl)Cl)C1C(=O)OC(C#N)c1ccc(F)c(Oc2ccccc2)c1 (stereo not drawn) [B-3A.11, β-Cyfluthrin]
Mortality in % after 6 days obs. ([1]; 0.16 g/ha): 0%
Mortality in % after 1 day obs. ([1]; 0.8 g/ha): 70%
Mortality in % after 6 days obs. ([1]; 0.8 g/ha): 70%
Mortality in % after 6 days obs. ([2]; 0.16 g/ha): 50%
Mortality in % after 6 days obs. ([2]; 0.8 g/ha): 67%
Mortality in % after 6 days obs. ([3]; 0.16 g/ha): 50%
Mortality in % after 6 days obs. ([4]; 4 g/ha, single active ingredient, 6 days): 0%

CC(C)c1ccc(F)cc1CN(C(=O)c1c(C(F)F)nn(C)c1F)C1CC1 [A-7, N-cyclopropyl-3-(difluoromethyl)-5-fluoro-N-(5-fluoro-2-isopropylbenzyl)-1-methyl-1H-pyrazole-4-carboxamide]
mortality at 100 g/ha [1, 5]: 0%
mortality at 200 g/ha [1, 5]: 0%
mortality at 100 g/ha [1, 6]: 0%
mortality at 200 g/ha [1, 6]: 0%
mortality at 100 g/ha [2, 7]: 0%
mortality at 150 g/ha [2, 7]: 0%
mortality at 100 g/ha [2, 8]: 0%
mortality at 200 g/ha [2, 8]: 0%
mortality at 100 g/ha [3, 9]: 0%
mortality at 150 g/ha [3, 9]: 0%
mortality at 100 g/ha [3, 10]: 0%
mortality at 100 g/ha [4, 11]: 0%
mortality at 150 g/ha [4, 11]: 0%
mortality at 200 g/ha [4, 11]: 0%

O=C1C=C(N(Cc2ccc(Cl)nc2)CC(F)F)CO1 [B-27.16, 4-{[(6-chloropyridin-3-yl)methyl](2,2-difluoroethyl)-amino}furan-2(5H)-one]
mortality at 4 g/ha [1, 5]: 0%
mortality at 100 g/ha [1, 5]: 80%
mortality at 100 g/ha [2, 7]: 50%
mortality at 20 g/ha [2, 8]: 0%
mortality at 20 g/ha [3, 10]: 0%
mortality at 100 g/ha [4, 11]: 0%
mortality at 100 g/ha [4, 12]: 0%

Acetamiprid [B-4A.1]
Mortality in % after 1 day obs. ([1]; 0.8 g/ha): 70%
Mortality in % after 2 days obs. ([2]; 20 g/ha): 50%
Mortality in % after 6 days obs. ([2]; 100 g/ha): 0%
Mortality in % after 6 days obs. ([3]; 20 g/ha): 0%
Mortality in % after 2 days obs. ([4]; 20 g/ha): 0%
